Measured values from US20230286983A1 (4E Therapeutics, Inc., priority 2020, published 2023).

How the values were obtained:
MNK2 = MNK2 (Homo sapiens, UniProt Q9HBH9); assay: MNK2 substrate phosphorylation assay; type: biochemical; conditions: recombinant human kinase
[1] = test system: eIF4E phosphorylation at Serine 209 in the human embryonic kidney (HEK) 293 cell line; assay: eIF4E phosphorylation in HEK 293 cells (fluorescent plate reader); type: cell-based; conditions: eIF4E phosphorylation at Serine 209, 2 hours exposure
Protocol: The ability of MNK inhibitors described herein to inhibit eIF4E phosphorylation at Serine 209 in the human embryonic kidney (HEK) 293 cell line was tested by exposing the cells to compound for 2 hours and then measuring eIF4E phosphorylation with a phosphorylation-specific antibody in a fluorescent plate reader. These experiments were done with HEK-293 cells plated on 96 well plates. Following treatment, cells were fixed with ice cold methanol for 10 min and then washed in 1× phosphate buffered saline (PBS) and the permeabilized with 0.02% Triton X-100 in 10% normal goat serum made up in PBS. Primary antibody was applied overnight at a concentration dilution of 1:2000 (p-eIF4E antibody from Cell Signaling ab76256). Following washing, cells were then exposed to secondary antibody conjugated to alexa-fluor 488 and then visualized on a Syngergy HTX plate reader. Fluorescence for p-eIF4E was measured and normalized to total DAPI fluorescence to determine the percentage of eIF4E phosphorylation in each well. Data were plotted in Graphpad Prism V8 to determine concentration-response effects and calculate IC50 values.

[2] = Liver microsome stability, mouse; type: in vitro ADME; conditions: mouse liver microsomes, Table 11b; for half-life: mouse, liver microsomes, read-out: T1/2
MDCK-MDR1 = MDCK-MDR1 permeability (blood brain barrier permeability); type: in vitro ADME, Canine; conditions: 5 μM; for Papp A-B: Apical to basolateral transport; for Papp A-B / Papp B-A: average of two experiments; for Papp B-A: Basolateral to apical transport
P-gp (human MDR1, ABCB1) = assay: as above; type: in vitro ADME, Canine; conditions: dog; for efflux ratio at 5 μM: MDCK-MDR1, 5 μM, read-out: Efflux ratio (ratio B-A/A-B); for Papp A→B at 5 μM: MDCK-MDR1, Apical to basolateral transport; for Papp A→B at 5 μM / Papp B→A at 5 μM: average of two experiments; for Papp B→A at 5 μM: MDCK-MDR1, Basolateral to apical transport
MNK1 = MNK1 (Homo sapiens, UniProt Q9BUB5); assay: MNK1 substrate phosphorylation assay; type: biochemical; conditions: recombinant human kinase
Sequence of MNK1 (Q9BUB5 whole entry): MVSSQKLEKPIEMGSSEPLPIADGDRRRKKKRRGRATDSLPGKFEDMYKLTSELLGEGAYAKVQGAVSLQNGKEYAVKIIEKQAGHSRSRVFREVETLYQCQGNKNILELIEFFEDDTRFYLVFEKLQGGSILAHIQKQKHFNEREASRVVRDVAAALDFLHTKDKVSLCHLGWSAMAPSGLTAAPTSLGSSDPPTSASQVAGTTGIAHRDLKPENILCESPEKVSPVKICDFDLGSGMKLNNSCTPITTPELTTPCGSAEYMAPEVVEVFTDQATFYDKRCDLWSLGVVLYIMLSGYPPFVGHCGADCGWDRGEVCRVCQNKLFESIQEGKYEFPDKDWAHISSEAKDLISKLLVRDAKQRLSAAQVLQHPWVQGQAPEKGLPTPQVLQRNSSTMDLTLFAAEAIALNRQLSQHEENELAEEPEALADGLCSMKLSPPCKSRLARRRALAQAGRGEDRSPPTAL

[3] = test system: eIF4E phosphorylation at Serine 209 in Karpas 299; assay: eIF4E phosphorylation in Karpas 299 cells (sandwich ELISA); type: cell-based; conditions: Homo sapiens, read-out: Karpas 299 cell IC50
Protocol: The ability of MNK inhibitors described herein to inhibit eIF4E phosphorylation at Serine 209 in Karpas 299, Human Non-Hodgkin's Ki-positive Large Cell Lymphoma cell line was tested by sandwich enzyme linked immune-absorbance assay.

[4] = molecular target: Cdc2-like kinase 4 (CLK4) (Homo sapiens, UniProt Q9HAZ1); assay: Off-target kinase screen CLK4; type: biochemical; conditions: 1 μM test compound
Sequence of Cdc2-like kinase 4 (CLK4) (Q9HAZ1 whole entry): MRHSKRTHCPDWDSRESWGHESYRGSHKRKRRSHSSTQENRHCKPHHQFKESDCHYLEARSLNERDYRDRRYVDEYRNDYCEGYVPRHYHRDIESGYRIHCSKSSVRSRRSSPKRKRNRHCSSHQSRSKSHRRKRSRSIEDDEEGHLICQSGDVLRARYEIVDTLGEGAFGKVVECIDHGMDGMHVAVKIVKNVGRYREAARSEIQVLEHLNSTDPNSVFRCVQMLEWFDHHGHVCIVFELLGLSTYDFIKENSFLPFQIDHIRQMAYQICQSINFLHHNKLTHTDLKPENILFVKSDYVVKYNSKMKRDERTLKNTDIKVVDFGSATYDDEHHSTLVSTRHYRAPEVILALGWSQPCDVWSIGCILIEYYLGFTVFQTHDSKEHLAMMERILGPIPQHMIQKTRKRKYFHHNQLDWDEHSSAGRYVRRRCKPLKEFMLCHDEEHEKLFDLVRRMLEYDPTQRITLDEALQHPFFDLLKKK
Source text: (§1) These kinases were chosen because they are the only known off-target hit kinases for eFT508. These assays were done using recombinant human kinases (CLK4, DRAK1 and PKG2) in a substrate phosphorylation assay. % activity remaining after MNK inhibitor treatment is indicated in Table 12.

[5] = Liver microsome stability, human; type: in vitro ADME; conditions: liver microsomes; for half-life: read-out: Human liver microsomes t1/2
[6] = Liver microsome stability, rat; type: in vitro ADME; conditions: Rat liver microsomes (#); for microsomal CLint: read-out: CLint rodent; for half-life: read-out: Rodent liver microsomes t1/2
[7] = molecular target: T1, death-associated protein kinase-related apoptosis-inducing protein kinase 1 (DRAK1) (Homo sapiens, UniProt Q9UEE5); assay: Off-target kinase screen DRAK1; type: biochemical; conditions: 1 μM test compound
T1 sequence (Q9UEE5 1-414): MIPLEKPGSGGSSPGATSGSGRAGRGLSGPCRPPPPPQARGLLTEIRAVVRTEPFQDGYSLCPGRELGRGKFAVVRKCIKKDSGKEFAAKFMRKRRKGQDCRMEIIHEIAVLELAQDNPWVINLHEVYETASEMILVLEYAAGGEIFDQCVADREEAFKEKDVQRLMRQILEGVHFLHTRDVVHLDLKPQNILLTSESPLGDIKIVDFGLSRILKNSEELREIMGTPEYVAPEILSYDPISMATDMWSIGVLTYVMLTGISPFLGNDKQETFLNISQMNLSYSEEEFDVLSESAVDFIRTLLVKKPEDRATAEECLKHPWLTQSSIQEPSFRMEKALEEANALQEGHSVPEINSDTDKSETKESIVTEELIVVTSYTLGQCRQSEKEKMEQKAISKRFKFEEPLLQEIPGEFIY
Source text: as §1

[8] = molecular target: T2, protein kinase G 2 (PKG2) (Homo sapiens, UniProt Q13237); assay: Off-target kinase screen PKG2; type: biochemical; conditions: 1 μM test compound
T2 sequence (Q13237 1-762): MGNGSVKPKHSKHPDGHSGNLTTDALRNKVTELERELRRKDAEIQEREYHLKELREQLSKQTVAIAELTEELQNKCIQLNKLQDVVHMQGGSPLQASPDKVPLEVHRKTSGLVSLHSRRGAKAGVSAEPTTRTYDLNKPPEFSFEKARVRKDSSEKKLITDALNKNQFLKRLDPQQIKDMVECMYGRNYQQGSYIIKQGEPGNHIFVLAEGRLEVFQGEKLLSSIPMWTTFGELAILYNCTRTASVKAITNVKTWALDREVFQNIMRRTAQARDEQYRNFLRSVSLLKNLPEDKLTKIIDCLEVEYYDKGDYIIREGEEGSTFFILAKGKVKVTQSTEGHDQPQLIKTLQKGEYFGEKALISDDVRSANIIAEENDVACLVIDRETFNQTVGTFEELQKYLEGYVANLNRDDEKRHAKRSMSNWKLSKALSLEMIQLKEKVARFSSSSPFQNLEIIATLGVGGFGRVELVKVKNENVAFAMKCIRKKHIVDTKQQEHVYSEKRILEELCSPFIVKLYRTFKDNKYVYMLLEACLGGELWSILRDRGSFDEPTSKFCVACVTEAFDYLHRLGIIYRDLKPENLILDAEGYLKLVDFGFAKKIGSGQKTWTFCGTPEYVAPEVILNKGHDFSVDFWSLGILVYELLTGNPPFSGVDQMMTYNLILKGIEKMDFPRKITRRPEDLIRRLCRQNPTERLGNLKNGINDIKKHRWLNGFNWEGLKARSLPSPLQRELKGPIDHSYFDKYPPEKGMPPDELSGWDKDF
Source text: as §1

Sequence of MNK2 (Q9HBH9 whole entry): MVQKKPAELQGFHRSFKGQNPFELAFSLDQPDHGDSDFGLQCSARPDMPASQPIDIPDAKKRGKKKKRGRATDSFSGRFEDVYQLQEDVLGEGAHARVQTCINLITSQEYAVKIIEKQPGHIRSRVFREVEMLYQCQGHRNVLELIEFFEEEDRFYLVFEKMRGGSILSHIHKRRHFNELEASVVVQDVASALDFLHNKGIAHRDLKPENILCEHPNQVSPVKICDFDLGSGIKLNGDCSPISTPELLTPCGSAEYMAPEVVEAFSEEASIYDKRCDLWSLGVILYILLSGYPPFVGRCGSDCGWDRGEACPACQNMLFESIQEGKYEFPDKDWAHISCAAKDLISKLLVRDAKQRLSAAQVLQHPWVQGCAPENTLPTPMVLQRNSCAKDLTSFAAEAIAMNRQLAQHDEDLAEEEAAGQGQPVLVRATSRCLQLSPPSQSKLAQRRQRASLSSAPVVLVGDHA

Row | IC50 (MNK2) | Papp A-B (MDCK-MDR1) | Papp B-A (MDCK-MDR1) | IC50 (MNK1) | T1/2 [2] | Efflux ratio (ratio B-A/A-B) (MDCK-MDR1) | Papp A→B at 5 μM (P-gp (human MDR1, ABCB1)) | Papp B→A at 5 μM (P-gp (human MDR1, ABCB1)) | remaining activity at 1 µM [4] | microsomal CLint [5] | half-life [5] | microsomal CLint [6] | half-life [6] | remaining activity at 1 µM [8] | Compound | IC50 [1] | IC50 ([1]; Homo sapiens, HEK293, 2 h) | remaining activity at 1 µM [7] | further results
1 | 4 nM | 24.9 ×10⁻⁶ cm/s | 46.4 ×10⁻⁶ cm/s | 26 nM |  |  |  |  |  |  |  |  |  |  | Cc1cc(Nc2cc(N)ncn2)c(=O)n2c1C(=O)NC21C[C@H]2COC[C@H]2C1 (single isomer, unassigned) [Compound 4ET-01-014A, 6′-((6-Aminopyrimidin-4-yl)amino)-8′-methyl-3a,4,6,6a-tetrahydro-1H,2′H,3H-spiro[cyclopenta[c]furan-5,3′-imidazo[1,5-a]pyridine]-1′,5′-dione] | 28.4 nM |  |  | half-life [2]: 4.5 h; efflux ratio at 5 μM (P-gp (human MDR1, ABCB1)): 1.9
2 | 4.6 nM | 2.4 ×10⁻⁶ cm/s | 5.8 ×10⁻⁶ cm/s | 24.5 nM | 7.17 h | 2.4 |  |  |  |  |  |  |  |  | Cc1cc(Nc2cc(N)ncn2)c(=O)n2c1C(=O)NC21C[C@H]2COC[C@H]2C1 (single isomer, unassigned) [Compound 4ET-01-014B, 6′-((6-Aminopyrimidin-4-yl)amino)-8′-methyl-3a,4,6,6a-tetrahydro-1H,2′H,3H-spiro[cyclopenta[c]furan-5,3′-imidazo[1,5-a]pyridine]-1′,5′-dione] | 67.4 nM |  |  | 
3 | 1.32 nM | 2 ×10⁻⁶ cm/s | 24.5 ×10⁻⁶ cm/s | 35 nM | 1.2 h | 12.4 |  |  |  |  |  |  |  |  | Cc1cc(Nc2cc(NC(=O)C3CC3)ncn2)c(=O)n2c1C(=O)NC21C[C@H]2CNC[C@H]2C1 (single isomer, unassigned) [Compound 4ET-03-050A, N-(6-((8′-Methyl-1′,5′-dioxo-1′,2,3,3a,4,5′,6,6a-octahydro-1H,2′H-spiro[cyclopenta[c]pyrrole-5,3′-imidazo[1,5-a]pyridin]-6′-yl)amino)pyrimidin-4-yl)cyclopropanecarboxamide] | 2.6 nM |  |  | 
4 | 6.84 nM | 0.7 ×10⁻⁶ cm/s | 0.9 ×10⁻⁶ cm/s | 40.9 nM | 7.07 h | 1.3 |  |  |  |  |  |  |  |  | Cc1cc(Nc2cc(NC(=O)C3CC3)ncn2)c(=O)n2c1C(=O)NC21C[C@H]2CNC[C@H]2C1 (single isomer, unassigned) [Compound 4ET-03-050B, N-(6-((8′-Methyl-1′,5′-dioxo-1′,2,3,3a,4,5′,6,6a-octahydro-1H,2′H-spiro[cyclopenta[c]pyrrole-5,3′-imidazo[1,5-a]pyridin]-6′-yl)amino)pyrimidin-4-yl)cyclopropanecarboxamide] | 150 nM |  |  | 
5 | 0.5 nM |  |  | 4.71 nM |  | 6.6 | 12.1 ×10⁻⁶ cm/s | 80.6 ×10⁻⁶ cm/s |  |  |  |  |  |  | Cc1cc(Nc2cc(NC(=O)C3CC3)ncn2)c(=O)n2c1C(=O)NC21Cc2ccccc2[C@@H]1F (single isomer, unassigned) [Compound 4ET-03-052A, N-(6-((1′-Fluoro-8-methyl-1,5-dioxo-1,1′,3′,5-tetrahydro-2H-spiro[imidazo[1,5-a]pyridine-3,2′-inden]-6-yl)amino)pyrimidin-4-yl)cyclopropanecarboxamide] |  | 19.2 nM |  | half-life [2]: 1.83 h
6 | 8.2 nM |  |  | 104 nM |  |  | 0.1 ×10⁻⁶ cm/s | 0.3 ×10⁻⁶ cm/s | 93% | 2.56 µL/min/mg | 9.02 h | 9.57 µL/min/mg | 2.42 h | 100% | Cc1cc(Nc2cc(N)ncn2)c(=O)n2c1C(=O)NC21CCC(NS(C)(=O)=O)CC1 (centres unmarked) [Compound 4ET-01-004, N-(6′-((6-Aminopyrimidin-4-yl)amino)-8′-methyl-1′,5′-dioxo-1′,5′-dihydro-2′H-spiro[cyclohexane-1,3′-imidazo[1,5-a]pyridin]-4-yl)methanesulfonamide] |  | 33.6 nM | 76% | efflux ratio at 5 μM (P-gp (human MDR1, ABCB1)): 4.4
7 | 1.6 nM |  |  | 39.6 nM |  |  |  |  | 92% | 2.51 µL/min/mg | 9.2 h | 2.54 µL/min/mg | 9.1 h | 99% | Cc1cc(Nc2cc(NCCO)ncn2)c(=O)n2c1C(=O)NC21CCCCC1 [Compound 4ET-02-001, 6′-((6-((2-Hydroxyethyl)amino)pyrimidin-4-yl)amino)-8′-methyl-2′H-spiro[cyclohexane-1,3′-imidazo[1,5-a]pyridine]-1′,5′-dione] |  | 7.1 nM | 81% | IC50 [3]: 17 nM

Row | Compound | IC50 (MNK2) | Papp A-B (MDCK-MDR1) | Papp B-A (MDCK-MDR1) | IC50 (MNK1) | T1/2 [2] | Efflux ratio (ratio B-A/A-B) (MDCK-MDR1) | Papp A→B at 5 μM (P-gp (human MDR1, ABCB1)) | Papp B→A at 5 μM (P-gp (human MDR1, ABCB1)) | remaining activity at 1 µM [4] | microsomal CLint [5] | half-life [5] | microsomal CLint [6] | half-life [6] | remaining activity at 1 µM [8] | IC50 [1] | IC50 ([1]; Homo sapiens, HEK293, 2 h) | remaining activity at 1 µM [7] | further results
8 | Cc1cc(Nc2cc(N)ncn2)c(=O)n2c1C(=O)NC2(C)C [Compound 4ET-01-003, 6-((6-Aminopyrimidin-4-yl)amino)-3,3,8-trimethyl-2,3-dihydroimidazo[1,5-a]pyridine-1,5-dione] | 2 nM |  |  |  |  |  | 9.1 ×10⁻⁶ cm/s | 13.3 ×10⁻⁶ cm/s | 91% | 1.93 µL/min/mg | 12 h | 2.33 µL/min/mg | 9.93 h | 88% |  |  | 65% | IC50 ([1]; Homo sapiens, HEK293): 10.5 nM; IC50 [3]: 35 nM
